Source: a melting point compilation (Tetko et al.)
Residues, ends and D or L forms follow the SMILES beside them. *: point of attachment. Cyclohexanecarbonyl = O=C(C1CCCCC1)*; Butoxycarbonyl = CCCCOC(=O)*; Bn = c1ccc(C*)cc1

| Compound | melting point |
| --- | --- |
| Cc1c(NC(=O)c2cccc(OCC(=O)NCCNC(=O)COc3cccc(C(=O)O)c3)c2)c2ccccn2c1C(=O)c1ccc(NC(=O)C(F)(F)F)c(C(=O)OCc2ccccc2)c1 | 197 °C |
| COc1ccc(-c2cc(C(=O)NCCCCCCc3ccccc3)cc(-c3cccc(C(F)(F)F)c3)c2OCC(=O)O)cc1 | 153 to 159 °C |
| [C-]#[N+]Cc1nc2ccccc2o1 | 57 to 57.5 °C |
| Cc1ccc(OCC(=O)O)c(C(=O)NCc2ccc(Br)cc2F)c1 | 145 to 146 °C |
| CCCCc1c(CC[Si](Cl)(Cl)Cl)c(CC[Si](Cl)(Cl)Cl)c(CC[Si](Cl)(Cl)Cl)c(CC[Si](Cl)(Cl)Cl)c1CC[Si](Cl)(Cl)Cl | 228 to 235 °C |
| CCOc1ccc(C(=CC2(C=C(c3ccc(OCC)cc3)c3ccc(N4CCCC4)cc3)OC(=O)c3c(Cl)c(Cl)c(Cl)c(Cl)c32)c2ccc(N3CCCC3)cc2)cc1 (stereo not drawn) | 221 to 223 °C |
| CCC(C=CC(C)C1CCC2C3CC=C4CC(OC(=O)N(CC(O)COC(c5ccccc5)(c5ccccc5)c5ccccc5)C(C)C)CCC4(C)C3CCC12C)C(C)C (stereo not drawn) | 75 to 76 °C |
| CC(=O)N(CC(CO)(CO)CN(Oc1c(I)c(C(=O)N(CCO)CCO)c(I)c(C(=O)N(CCO)CCO)c1I)C(C)=O)Oc1c(I)c(C(=O)N(CCO)CCO)c(I)c(C(=O)N(CCO)CCO)c1I | 198 °C |
| CC(C)(C)c1cc(CCC(=O)OCC(COCC(COC(=O)CCc2cc(C(C)(C)C)c(O)c(C(C)(C)C)c2)OC(=O)CCc2cc(C(C)(C)C)c(O)c(C(C)(C)C)c2)OC(=O)CCc2cc(C(C)(C)C)c(O)c(C(C)(C)C)c2)cc(C(C)(C)C)c1O (stereo not drawn) | 57 °C |
| CC(=O)OCC(O)CO (stereo not drawn) | 17 °C |
| CS(=N)(=O)Cc1ccc(Cl)nc1 (stereo not drawn) | 134 to 136 °C |
| CCC(C=CC(C)C1CCC2C3CC=C4CC(OC(=O)N(CC(COC(c5ccccc5)(c5ccccc5)c5ccccc5)C(=O)NC)C(C)C)CCC4(C)C3CCC12C)C(C)C (stereo not drawn) | 92 to 93 °C |
| COc1cc(OC)c(/C=C/C(c2ccc(OC)c(NC(=O)C(F)(F)C(F)(F)F)c2)S(=O)(=O)C(/C=C/c2c(OC)cc(OC)cc2OC)c2ccc(OC)c(NC(=O)C(F)(F)C(F)(F)F)c2)c(OC)c1 (stereo not drawn) | 179 to 180 °C |
| O=C(CCl)Nc1nc(-c2ccco2)c(C(=O)c2ccccn2)s1 | 184 to 185 °C |
| CC(C)C(NC(=O)N(C)Cc1ccccn1)C(=O)NC(Cc1ccccc1)C(O)C(O)C(Cc1ccccc1)NC(=O)C(NC(=O)N(C)Cc1nccs1)C(C)C (stereo not drawn) | 96 to 97 °C |
| Cc1ccn2c(-c3ccnc(-c4ccc(OCc5cn(C)cn5)cc4)c3)c(-c3cccc(C)n3)nc2c1 | 217 °C |
| O=C(O)CN(CC(COCc1ccccc1)N(CCCOCc1ccccc1)CC(=O)O)CC(COCc1ccccc1)N(CCCOCc1ccccc1)CC(=O)O (stereo not drawn) | 150 °C |
| O=C(Cc1ccccc1)Oc1n[nH]c(=O)c2nc3cc(Cl)ccc3c(O)c12 | 278 to 282 °C |
| CCCCOC(=O)c1ccc(=O)[nH]n1 | 79 to 80 °C |
| CS(=N)(=O)c1ccc([N+](=O)[O-])c(C(=O)C2C=CC(C(F)(F)F)=C(Oc3ccccc3)C2(Cl)[N+](=O)[O-])c1 (stereo not drawn) | 62 to 63 °C |
| CC(C)[Si](OC(=O)Cc1cc(I)c(Oc2cc(I)c(O)c(I)c2)c(I)c1)(C(C)C)C(C)C | 146 °C |

| Compound | melting point |
| --- | --- |
| COC(=O)C(C)NC(=O)C(Cc1ccc(OCc2ccccc2)cc1)NC(=O)C(COCc1ccccc1)NC(=O)C(Cc1c[nH]c2ccccc12)NC(=O)C1CCCCC1 (stereo not drawn) (Cyclohexanecarbonyl-WS(Bn)Y(Bn)A-OMe; configuration not given here) | 181 to 183 °C |
| CC(CCOc1c(I)cc(I)cc1I)Oc1c(I)cc(I)cc1I (stereo not drawn) | 173 to 175 °C |
| O=C(Nc1ccc(Cl)cc1)c1ccc(-c2nn[nH]n2)c(NC(=O)c2sc3ccccc3c2Cl)c1 | > 250 °C |
| Cn1nc(COC(=O)CCC(=O)OCc2nc(NCCCOc3cccc(CN4CCCCC4)c3)n(C)n2)nc1NCCCOc1cccc(CN2CCCCC2)c1 | 80 to 81.5 °C |
| COc1cc(C(=O)NC2OC(COC(C)=O)C(OC3OC(COC(C)=O)C(OC(C)=O)C(OC(C)=O)C3OC(C)=O)C(OC(C)=O)C2OC(C)=O)ccc1Cl (stereo not drawn) | 106 to 110 °C |
| OCCOc1ccc(-c2ccc(OCCO)cc2)cc1 | 201 to 202 °C |
| CCOC(=O)N1c2cc(OC)c(OC)cc2C(=O)C(=CN)C1C (stereo not drawn) | 92 to 95 °C |
| CCCCOC(=O)NC(COCc1ccccc1)C(=O)NC(Cc1c[nH]c2ccccc12)C(=O)NC(CO)C(=O)NC(Cc1ccc(O)cc1)C(=O)NC(Cc1ccccc1)C(=O)NC(CC(C)C)C(=O)OC (stereo not drawn) (Butoxycarbonyl-S(Bn)WSYFL-OMe; configuration not given here) | 200 to 202 °C |
| CC(O)CN(C)C (stereo not drawn) | -40 °C |
| CCCCCCCCCCOc1cc2c3cc(OCCCCCCCCCC)c(OCCCCCCCCCC)cc3c3c(OC)ccc(OC)c3c2cc1OCCCCCCCCCC | 69 to 70 °C |
| COc1cccc(-c2cc3ncnc(Nc4ccc5[nH]ccc5c4)c3s2)c1 | 160 to 168 °C |
| Ic1cc(I)c(OCCOc2c(I)cc(I)cc2I)c(I)c1 | 288 to 289 °C |
| COc1cc(OC)c(/C=C/C(c2ccc(OC)c(NC(=O)c3cc([N+](=O)[O-])cc([N+](=O)[O-])c3)c2)S(=O)(=O)C(/C=C/c2c(OC)cc(OC)cc2OC)c2ccc(OC)c(NC(=O)c3cc([N+](=O)[O-])cc([N+](=O)[O-])c3)c2)c(OC)c1 (stereo not drawn) | 277 to 279 °C |
| CCCCC(CC)COc1cc2c3cc(OCC(CC)CCCC)c(OCC(CC)CCCC)cc3c3c(OC)ccc(OC)c3c2cc1OCC(CC)CCCC (stereo not drawn) | 54 to 56 °C |
| CC(=O)NC1C(OCc2ccccc2)OC(COCc2ccccc2)C(OC2OC(COCc3ccccc3)C(OCc3ccccc3)C(OCc3ccccc3)C2NC(C)=O)C1O (stereo not drawn) | 220 to 222 °C |
| COc1c(Cl)nc(-c2ccc(Cl)c(OC)c2F)nc1Cl | 137 to 138 °C |
| CCN(C(=O)NC)C1C(Cl)=C(OC2=C(Cl)C(N(CC)C(=O)NC)C(c3ccccc3C(F)(F)F)([N+](=O)[O-])C=C2)C=CC1(c1ccccc1C(F)(F)F)[N+](=O)[O-] (stereo not drawn) | 128 °C |
| CC(=O)OCC(COC(C)=O)NC(=O)c1c(I)c(C(=O)NC(COC(C)=O)COC(C)=O)c(I)c(N2C(=O)OCC2CO)c1I (stereo not drawn) | 235 to 240 °C |
| CCCCCCCCCCOc1cc(OCCCCCCCCCC)cc(N(CC(=O)OCOC(C)=O)CC(=O)OCOC(C)=O)c1 | 37 to 39 °C |
| CCc1nc(OC)c(NC(=O)N2CCN(c3cc(OC)cc(OC)c3)CC2)cc1C(=O)NC(C)C(=O)Nc1cc(CO)cc(Nc2c3ccccc3nc3ccccc23)c1 (stereo not drawn) | 231 to 233 °C |
| O=C(Oc1ccc2c(OC(=O)c3ccc(OCc4ccccc4)c(Cl)c3)c3ccccc3cc2c1OC(=O)c1ccc(OCc2ccccc2)c(Cl)c1)c1ccc(OCc2ccccc2)c(Cl)c1 | 106 to 109 °C |

| Compound | melting point |
| --- | --- |
| CC=C(C)C(=O)NC(c1ccccc1)C(O)C(=O)OC1CC2(O)C(OC(=O)c3ccccc3)C3C4(OC(C)=O)COC4CC(O)C3(C)C(=O)C(OC(C)=O)C(=C1C)C2(C)C (stereo not drawn) | 184 to 186 °C |
| C[Si](C)(C)CCS(=O)(=O)N=S(=O)(c1ccc(N)cc1)C1CC1 (racemic) | 137 to 138 °C |
| CCN(CC)CCN=S(=O)(c1ccccc1)c1ccco1 (stereo not drawn) | 133 °C |
| CC(C)(C)c1cc(CCC(=O)OCCOc2ccc(C(C)(C)c3ccc(OCCOC(=O)CCc4cc(C(C)(C)C)c(O)c(C(C)(C)C)c4)cc3)cc2)cc(C(C)(C)C)c1O | 104 to 106 °C |
| CC(C)(CCCCCCCCC(C)(C)NC(=O)C(C)(C)Cc1cc(C(C)(C)C)c(O)c(C(C)(C)C)c1)NC(=O)C(C)(C)Cc1cc(C(C)(C)C)c(O)c(C(C)(C)C)c1 | 126 °C |
| COc1ccc(C2Sc3ccccc3N(CCN(C)C)C(=O)C2OC(=O)C=CC(=O)OC2C(=O)N(CCN(C)C)c3ccccc3SC2c2ccc(OC)cc2)cc1 (stereo not drawn) | 112 to 114 °C |
| COC1C(=O)C2(C)C(OC)CC3OCC3(OC(C)=O)C2C(OC(=O)c2ccccc2)C2(O)CC(OC(=O)C(O)C(NC(=O)OC(C)(C)C)c3ccccc3)C(C)=C1C2(C)C (stereo not drawn) | 125 to 145 °C |
| COc1ccc(N2C(=O)C3Cc4[nH]cnc4CN3C2=O)cc1 (stereo not drawn) | 142 to 148 °C |
| [C-]#[N+]CS(=O)c1ccccn1 (stereo not drawn) | 91 to 93 °C |
| CCCCCCCCCCOc1c(-c2nc3ccccc3s2)sc(-c2sc(-c3nc4ccccc4s3)c(OCCCCCCCCCC)c2OCCCCCCCCCC)c1OCCCCCCCCCC | 93.9 to 95 °C |
| CC(=O)OC12COC1CC(O)C1(C)C(=O)C(O)C3=C(C)C(OC(=O)C(O)C(NC(=O)OC(C)(C)C)c4ccccc4)CC(O)(C(OC(=O)c4ccccc4)C21)C3(C)C (stereo not drawn) | 196 to 203 °C |
| CC(C)CCCC(C)C1CCC2C3CC=C4CC(N(CCCNC(=O)CCNC(=O)CNC(=O)OCC5c6ccccc6-c6ccccc65)C(=O)OC(C)(C)C)CCC4(C)C3CCC12C (stereo not drawn) | 112 to 114 °C |
| CC(=O)OCC(CNC(=O)c1c(I)c(C(=O)NCC(COC(C)=O)OC(C)=O)c(I)c(N2CCCC2=O)c1I)OC(C)=O (stereo not drawn) | 130 to 133 °C |
| CS(C)(=O)=NC(=O)c1cc(Oc2ccc(C(F)(F)F)cc2Cl)ccc1[N+](=O)[O-] | 122 °C |
| CCCC(=O)c1c[nH]c2ccc(COC(=O)c3ccccc3)cc2c1=O | 220 to 223 °C |
| CCN(CC)CCN=S(=O)(c1cccs1)c1cccs1 | 131 °C |
| CC(C)CCCC(C)C1CCC2C3CC=C4CC(N(CCCNC(=O)CCNC(=O)CCNC(=O)CCCCCNc5ccc([N+](=O)[O-])cc5[N+](=O)[O-])S(=O)(=O)c5ccccc5[N+](=O)[O-])CCC4(C)C3CCC12C (stereo not drawn) | 106 to 108 °C |
| C=CCOc1nc(NC(C)(C)CC(C)(C)C)nc(N(CCCCCCN(c2nc(NC(C)(C)CC(C)(C)C)nc(OCC=C)n2)C2CC(C)(C)NC(C)(C)C2)C2CC(C)(C)NC(C)(C)C2)n1 | 210 to 212 °C |
| Brc1cc(Br)c(Oc2nc(Oc3c(Br)cc(Br)cc3Br)nc(Oc3c(Br)cc(Br)cc3Br)n2)c(Br)c1 | 215 to 218 °C |
| CS(C)(=O)=NC(=O)c1cc(O)ccc1[N+](=O)[O-] | 146 to 149 °C |
| CC(=O)Nc1cc(COC2OC(COC(=O)c3ccc(Cl)cc3)C(OC3OC4COC(c5ccccc5)OC4C(OC(C)=O)C3OC(C)=O)C(OC(C)=O)C2OC(C)=O)ccc1Cl (stereo not drawn) | 114 to 115 °C |
